Source: patent US8299285B2, “Compounds for imaging and therapy” (Isis Innovation Limited, priority 2005, dated 2012)
Several values for one entry are separate records, joined by “and”; a condition that tells them apart may be missing. Equal values may be shown once. Read-outs that look alike come from different tables or passages of the source.

Tests used:
Assay type in all cases: physicochemical
[1] = octanol/water partition coefficient (log P)
Text: Modification of the substituents present on the bis(thiosemicarbazone) ligand can be used to control, for example, the lipophilicity of the ligand and resulting complex. For example, lipophilicity can be increased with increasing alkyl substitution of the conjugated ligand backbone, particularly in the groups R2, R2′, L1, L1′, R1 and R1′.

[2] = UV/vis spectroscopy of complexes 1-13; conditions: for λmax (nm), (higher wavelength absorption peak, lowest energy transition) / λmax (nm): DMSO, 0.001 mmol concentration; for ε (mol^-1 dm^3 cm^-1): molar absorption coefficient of the higher wavelength absorption peak, Beer-Lambert law
Description: (§1) UV/Vis and fluorescence spectra were measured with a Perkin Elmer Lamda 19 spectrometer and a Hitachi F-4500 fluorescence spectrophotometer respectively.
(§2) The optical properties of a range of mono- and binuclear complexes derived from Zn[ATSM/A] (see the table below) were measured by electronic absorption (UV/vis) and fluorescence spectroscopy.
UV/vis spectroscopy: electronic absorption spectra were recorded in DMSO at 0.1, 0.01 and 0.001 mmol concentrations. Values of λmax were obtained from spectra of solutions at 0.001 mmol concentration, as this is sufficiently dilute to enable intermolecular interactions to be neglected.

[3] = Fluorescence spectroscopy of complexes 1-13; conditions: for fluorescence emission λmax /nm / Relative intensity / Relative intensity (values in parentheses): excited at 475 nm; for fluorescence emission λmax /nm / Relative intensity: 0.01 mmol solutions in DMSO; for Relative intensity / Relative intensity (values in parentheses): relative to complex 3; for fluorescence strength: 0.01 mmol concentrations in DMSO; for Relative intensity (values in parentheses): 0.1 mmol solutions; for increase in fluorescence intensity relative to Zn[ATSM] and Zn[ATSM/A]: fluorescence emission
Description: as §1, §2
Fluorescence spectroscopy: the fluorescence of complexes 1-13 was measured at 0.1, 0.01 and 0.001 mmol concentrations by exciting at a range of wavelengths from 300 nm to 500 n. At 0.1 mmol and 0.01 mmol concentrations all of the complexes show emissions between 534 nm and 604 nm. […] Values of λmax and the intensity of the fluorescence emission relative to that of complex 3 when excited at 475 nm for complexes 1-13 are give in the following table.
All values relate to 0.01 mmol solutions in DMSO. (a) The values in parentheses refer to 0.1 mmol solutions.

[4] = Fluorescence emission spectra of zinc bis(thiosemicarbazone) complexes (Zn[BTSCs]); conditions: for Fluorescence Emission λmax(2): peak (2), associated with the BTSC backbone; for fluorescence peak associated with the phenyl ring: FIG. 2; for Fluorescence Emission λmax(1): peak (1), associated with the phenyl component
Description: as §1
In addition to the fluorescence band around 550 nm the Zn[ATS(R)/P-carb] complexes show a second band with at λma 340 nm. This may be associated with the fluorescence of the terminal benzoic acid group.
Fluorescence emission of Zn[ATS(R)/P-Cart] for excitation with DMSO at 300 nm.
To further investigate the effect of addition of a phenyl group onto zinc [BTSC], complexes differing only by the presence of a phenyl group were compared; see FIG. 2.
The Zn[GT(Et)] peak at 335 nm, is a Raman scattering peak. The Zn[PGTS(Et)] peak at 342 nm and the Zn[GTS(Ph)] peak at 397 nm are due to fluorescence associated with the phenyl ring. These peaks are readily differentiated; true fluorescence emission peaks (λmax,) remain static over a range of excitation wavelengths whereas Raman peaks (λmax) vary, as described by Wayne, R. P., in Principles and Applications of Photochemistry, 1986.
(§3) The following table gives the position of λmax for the fluorescence emission spectra and the second and third UV/vis Absorptions for a range of Zn[BTSCs]
Fluorescence peak (1) between 340 and 400 nm, associated with the phenyl component and a second, fluorescence peak (2), present in all complexes between 530 and 570 nm, associated with the BTSC backbone. The intensity of fluorescence peak (1) was always less than that of fluorescence peak (2). Fluorescence peak (2) for the all the phenyl complexes appear at longer wavelengths as these have longer delocalised π systems than their alkyl substituted counterparts.

[5] = UV/Vis absorption of Zn[BTSCs]; conditions: for UV/Vis Absorption λmax(2): second UV/vis absorption; for UV/Vis Absorption λmax(3): third UV/vis absorption
Description: as §1
The co-ordination of BTSCs to zinc produces an extended delocalised system. Zn[ATSM] was the first of these complexes observed to be fluorescent (Emission: λmax=557 nm) and with UV/Vis absorptions at 308 and 429 nm, in line with the predictions of DFT calculations. A third absorption predicted by DFT at below 300 nm was not observed due to limitations of the spectrometer.
as §3

[6] = Fluorescence of Zn[ATS(Me)/A-T-Amino-BTAP] and its precursors; conditions: 475 nm, DMSO, 0.01 mM
Description: as §1
The fluorescence emission spectrum of Zn[ATS(Me)/A-T-Amino-BTAP] can be examined as two regions 400-500 nm, predominantly benzothiazole fluorescence and 490-790 nm, predominantly the zinc (BTSC) fluorescence.
FIGS. 3 and 4 show the fluorescence emission spectra (a) for Amino-BTAP, 4-Aldehydrophenylimino-BTAP and Zn[ATS(Me)/A-T-Amino-BTAP], (375 nm, D MSO, 0.01 mM); and (b) for Zn[ATS(Me)/A-T-Amino-BTAP], Zn[ATS(Me)/A] and Zn[ATS(Me)/A-T], (475 nm. DMSO, 0.01 mM).

[7] = Cyclic voltammetry in DMF with a glassy carbon electrode; conditions: vs SCE
Text: Under the same conditions the hypoxia selective radiopharmaceutical [Cu(ATSM)] undergoes a reversible reduction at E1/2=−0.59 V.

[8] = wavelengths greater than 300 nm

Row | Molecule | λmax (nm), (higher wavelength absorption peak, lowest energy transition) [2] | λmax (nm) [2, 8] | ε (mol^-1 dm^3 cm^-1) [2] | fluorescence emission λmax /nm [3] | Relative intensity [3] | further results
1 | CC1=[N+]2N=C(N)[S][Cu-2]23[S]C(N)=N[N+]3=C1 (stereo not drawn) [Cu[PTS]] |  |  |  |  |  | log P ([1]; P is the octanol/water partition coefficient): 0.76
2 | CNC1=NN=C(C)C(C)=NN=C(N/N=C/c2ccccc2)[S][Zn][S]1 [Complex 3, Zn[ATSM/A-benzaldehyde]] | 451 nm | 333 nm | 40016 mol^-1 dm^3 cm^-1 | 553 nm | 1.00 | 
3 | CNC([S-])=NN=CC=NN=C([S-])NC.[Zn+2] [Zn[GTS(Me)]] |  |  |  |  |  | Fluorescence Emission λmax(2) [4]: 550 nm; UV/Vis Absorption λmax(2) [5]: 334 nm; UV/Vis Absorption λmax(3) [5]: 446 nm
4 | CC(C=NNC(=S)N(C)C)=NNC(=S)N(C)C.[Cu] [Cu[PTSM2]] |  |  |  |  |  | log P [1]: 3.18
5 | CNC1=NN=C(C)C(C)=NN=C(N/N=C(\C)C(C)=O)[S][Zn][S]1 [Complex 8, Zn[ATSM/A-butane-2,3-dione]] | 455 nm | 323 nm | 35594 mol^-1 dm^3 cm^-1 | 561 nm | 0.33 | 
6 | CNC1=NN=C(C)C(C)=NN=C(N/N=C/c2c(O)ccc3ccccc23)[S][Zn][S]1 [Complex 6, Zn[ATSM/A-2-hydroxynaphthaldehyde]] | 460 nm | 334 nm | 62183 mol^-1 dm^3 cm^-1 | 558 nm | 2.61 | λmax (nm) [2]: 379 nm
7 | CNC1=NN=C(C)C(C)=NN=C(N/N=C/c2ccc(C=O)cc2)[S][Zn][S]1 [Complex 10, Zn[ATSM/A-terephthalaldehyde]] | 468 nm |  | 49912 mol^-1 dm^3 cm^-1 | 584 nm | 0.23 | λmax (nm) [2]: 364 nm; fluorescence intensity in the zinc complex region, versus Zn[ATS(Me)/A-T-Amino-BTAP] [6]: approximately tenfold lower; rank of fluorescence emission curve intensity, FIG. 4 (b) [6]: lowest intensity
8 | CNC1=NN=C(C)C(C)=NN=C(NN)[S][Zn][S]1 [Complex 2, Zn[ATSM/A]] | 429 nm | 315 nm | 29690 mol^-1 dm^3 cm^-1 | 548 nm | 0.10 | fluorescence intensity in the zinc complex region, versus Zn[ATS(Me)/A-T-Amino-BTAP] [6]: approximately tenfold lower; rank of fluorescence emission curve intensity, FIG. 4 (b) [6]: second highest intensity; fluorescence strength [3]: comparatively weak fluorescence; Relative intensity (values in parentheses) [3]: 0.32
9 | CNC1=NN=C(C)C(C)=NN=C(N/N=C/c2cccc(/C=N/NC3=NN=C(C)C(C)=NN=C(NC)[S][Zn][S]3)c2)[S][Zn][S]1 [Complex 13, Zn2[ATSM/A-isopthalaldehyde-ZnATSM/A]] | 457 nm | 339 nm | 79475 mol^-1 dm^3 cm^-1 | 567 nm | 2.65 | increase in fluorescence intensity relative to Zn[ATSM] and Zn[ATSM/A] [3]: almost thirty-fold increase
10 | C1=[N+]2N=C(Nc3ccccc3)[S][Zn-2]23[S]C(Nc2ccccc2)=N[N+]3=C1 [Zn[GTS(Ph)]] |  |  |  |  |  | fluorescence peak associated with the phenyl ring [4]: 397 nm; Fluorescence Emission λmax(1) [4]: 340 nm; Fluorescence Emission λmax(2) [4]: 575 nm; UV/Vis Absorption λmax(2) [5]: 342 nm; UV/Vis Absorption λmax(3) [5]: 469 nm
11 | Zn[ATSM] [Complex 1, reference compound] | 429 nm | 308 nm | 29444 mol^-1 dm^3 cm^-1 | 534 nm | 0.09 | Emission λmax [4]: 557 nm; UV/Vis absorptions [5]: 308 nm and 429 nm; fluorescence strength [3]: comparatively weak fluorescence; Relative intensity (values in parentheses) [3]: 0.35
12 | CCNC1=N[N+]2=CC=[N+]3N=C(NCC)[S][Zn-2]23[S]1 [Zn[GTS(Et)]] |  |  |  |  |  | Fluorescence Emission λmax(2) [4]: 550 nm; UV/Vis Absorption λmax(2) [5]: 323 nm; UV/Vis Absorption λmax(3) [5]: 445 nm
13 | CNC1=NN=C(C)C(C)=NN=C(N/N=C/c2ccco2)[S][Zn][S]1 [Complex 4, Zn[ATSM/A-2-furaldehyde]] | 455 nm | 340 nm | 36939 mol^-1 dm^3 cm^-1 | 551 nm | 1.05 | 
14 | CNC1=NN=C(C)C(C)=NN=C(N/N=C/C(=O)c2ccccc2)[S][Zn][S]1 [Complex 9, Zn[ATSM/A-phenylglyoxal]] | 474 nm | 341 nm | 46157 mol^-1 dm^3 cm^-1 | 605 nm | 0.19 | 
15 | CCCN(CCC)c1ccc(/C=N/NC2=NN=C(C)C(C)=NN=C(NC)[S][Zn][S]2)cc1 [Complex 7, Zn[ATSM/A-4-(di-n-propylamino)benzaldehyde]] | 465 nm | 321 nm | 75127 mol^-1 dm^3 cm^-1 | 578 nm | 2.85 | λmax (nm) [2]: 370 nm
16 | CN=C([S-])N/N=C(C)/C(C)=N/NC([S-])=NC.[Cu+2] [[Cu(ATSM)], Cu[ATSM], reference compound] |  |  |  |  |  | E1/2 of reduction (Cu(II) to Cu(I)) [7]: −0.59 V
17 | CNC1=NN=C(C)C(C)=NN=C(N/N=C/C=N/NC2=NN=C(C)C(C)=NN=C(NC)[S][Zn][S]2)[S][Zn][S]1 [Complex 11, Zn2[ATSM/A-glyoxal-ATSM/A]] | 489 nm | 330 nm | 126450 mol^-1 dm^3 cm^-1 | 558 nm | 2.46 | increase in fluorescence intensity relative to Zn[ATSM] and Zn[ATSM/A] [3]: almost thirty-fold increase
18 | CNC1=NN=C(C)C(C)=NN=C(N/N=C/c2ccccc2O)[S][Zn][S]1 [Complex 5, Zn[ATSM/A-salicylaldehyde]] | 455 nm | 346 nm | 51172 mol^-1 dm^3 cm^-1 | 548 nm | 0.95 | 
19 | CCNC1=N[N+]2=CC(c3ccccc3)=[N+]3N=C(NCC)[S][Zn-2]23[S]1 (stereo not drawn) [Zn PGTS(Et), Zn [PGTS(Et)]] |  |  |  |  |  | fluorescence peak associated with the phenyl ring [4]: 342 nm; Fluorescence Emission λmax(1) [4]: 391 nm; Fluorescence Emission λmax(2) [4]: 567 nm; UV/Vis Absorption λmax(2) [5]: 331 nm; UV/Vis Absorption λmax(3) [5]: 466 nm
